Source: ChEMBL document CHEMBL3351249, “Potent cholesteryl ester transfer protein inhibitors of reduced lipophilicity: 1,1'-spiro-substituted hexahydrofuroquinoline derivatives” (J Med Chem, 2014)

Columns and labels:
[1] = molecular target: T1, Cholesteryl ester transfer protein (Homo sapiens, UniProt P11597); assay: Inhibition of human recombinant CETP by fluorescence transfer assay
T1 sequence (P11597 whole entry): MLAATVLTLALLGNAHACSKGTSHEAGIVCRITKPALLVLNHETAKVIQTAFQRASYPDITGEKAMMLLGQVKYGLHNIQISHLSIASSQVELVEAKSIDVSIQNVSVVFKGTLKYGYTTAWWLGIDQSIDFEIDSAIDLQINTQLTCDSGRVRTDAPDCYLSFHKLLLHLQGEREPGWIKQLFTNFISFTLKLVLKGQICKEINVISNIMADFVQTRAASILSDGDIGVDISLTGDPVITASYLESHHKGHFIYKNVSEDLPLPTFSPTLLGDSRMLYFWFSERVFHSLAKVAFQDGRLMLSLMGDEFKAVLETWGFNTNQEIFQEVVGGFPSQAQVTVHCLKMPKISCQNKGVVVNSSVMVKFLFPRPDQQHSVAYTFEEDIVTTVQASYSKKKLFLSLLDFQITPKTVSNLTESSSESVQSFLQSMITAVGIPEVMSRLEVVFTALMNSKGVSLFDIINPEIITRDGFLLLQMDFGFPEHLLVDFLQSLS

[2] = Terminal elimination half life in healthy human administered as single oral dose; type: ADME, organism-based; details: in vivo, read-out: beta t1/2 (converted)

IC50 [1] | half-life [2] | Compound
576 nM | – | CC(C)c1nc2c(c3c1[C@H](c1ccc(C(F)(F)F)cc1)OC31CCOCC1)[C@H](O)CC(C)(C)C2
– | 44 h | Cc1cc(C)c2c(c1)[C@@H](N(Cc1cc(C(F)(F)F)cc(C(F)(F)F)c1)c1nnn(C)n1)CCCN2C[C@H]1CC[C@H](C(=O)O)CC1 [EVACETRAPIB]
548 nM | – | CC(C)c1nc2c(c3c1[C@@H](c1ccc(C(F)(F)F)cc1)OC3(C)C)[C@@H](O)CC(C)(C)C2
